Data from patent US11826399B2, “Chlorotoxin agents and uses thereof” (Eisai Inc., priority 2017, dated 2023).

Tested on: PC-3 human prostate cancer cells
Assay: Co-administration of Cryptophycin Payload with CTX or iRGD in subcutaneous PC-3 xenograft model
Assay type: in vivo, mouse
Conditions: iRGD + Cryptophycin Payload 0.2 mg/kg (data not shown)

**Q.** With “iRGD: tumor-penetrating peptide iRGD (CRGDK/RGPD/EC) (SEQ ID NO: 202)” as the substance, how does the “Effect of co-administration on tumor re-growth versus Cryptophycin Payload alone” value read?
**A.** re-growth of tumors was not shown to be significantly different
